Results published in patent publication US20120035187A1 (priority 2009, published 2012).

Tests used:
[1] = system: PC12-HS cells; assay: Evaluation A: neurocyte (cell)-growth-promoting action, ALAMAR BLUE; format: cell-based, rat; settings: for Cell survival percentage (%): cell-growth promotion; for optimum concentration for exhibiting cell-growth-promoting action: from Table 9
[2] = system: hamsters with cerebellar ataxia; assay: Rotarod test in hamsters with cerebellar ataxia; format: in vivo, hamster; settings: for Time of falling from rotarod: hamster with cerebellar ataxia, agent of Example 1, 0.5 ml/hamster intraperitoneally once a day for 56 days
[3] = system: PC12-HS cells; assay: Evaluation B: neurite-outgrowth action in presence of NGF; format: cell-based, rat; settings: for Evaluation B: Neurite-outgrowth action: 50 μl of 400 ng/ml test sample solution per well + NGF final 5 ng/ml
[4] = system: ICR mice administered with amyloid β fragment; assay: Degeneration or defect of hippocampal pyramidal cells, mouse administered with amyloid β fragment, agents of Example 1; format: in vivo; settings: 4-point grade score none (0) to severe (3), average of 10 mice; agent of Example 1, 0.3 ml/head intraperitoneally once a day up to the 8th day
Protocol: One hundred and thirty ICR mice (commercialized by Charles Liver Laboratories Japan Inc., Kanagawa, Japan) were randomly divided into 13 groups, consisting of 10 mice in each group. Amyloid β fragment, represented by an amino acid sequence of SEQ ID NO: 1, used in Experiment 3 was aged at 37° C. for four days, and administered to the lateral ventricle of each mouse in an amount of 9 nmol/6 μl/mouse (the administration method is referred to “Brain Research”, Vol. 706, pp. 181-193 (1996)). […] The mice (10 heads) in the remaining one group were intraperitoneally administered with a sterilized 10% maltose solution (pyrogen-free) once a day up to the 8th day in an amount of 0.3 ml/mouse (control). On the 8th day after the administration, novel object recognition test (see, Japanese Patent Kokai No. 2008-193941) was performed and the average discrimination index (the ratio of prolonged seeking time for novel object to the total seeking time) as a cognitive function index were shown in Table 26. On the 9th day after the administration, the brain of the mice was anatomically isolated, prepared into tissue samples in conventional manner. Depositions of aggregation of amyloid fragment were observed by staining with Congo red or thioflavin T, and degeneration or defect of hippocampal pyramidal cells concerned with cognitive function. The degeneration or the defect of hippocampal pyramidal cells was evaluated by 4-point grade score, by regarding the condition of the control without administration of amyloid β fragment as “none (O)”, “slight (1)”, “moderate (2)”, and “sever (3)”, and the average scores of 10 mice are shown in Table 20.

[5] = compound concentration 25 ng/ml
[6] = compound concentration 50 ng/ml
[7] = compound concentration 100 ng/ml
[8] = compound concentration 200 ng/ml
[9] = compound concentration 80 ng/ml
[10] = compound concentration 400 ng/ml
[11] = compound concentration 2000 ng/ml
[12] = compound concentration 10000 ng/ml
[13] = no compound = 100%, final concentration 12.5 ng/ml
[14] = final concentration of compound 200 ng/ml
[15] = final concentration of compound 400 ng/ml
[16] = final concentration of compound 800 ng/ml
[17] = final concentration of compound 1600 ng/ml

Row | Structure (SMILES) | Action of enhancing cell growth (%) [1, 5] [%] | Action of enhancing cell growth (%) [1, 6] [%] | Action of enhancing cell growth (%) [1, 7] [%] | Action of enhancing cell growth (%) [1, 8] [%] | Time of falling from rotarod [2] [s] | Action on neurite outgrowth (%) [3, 9] [%] | Action on neurite outgrowth (%) [3, 10] [%] | Action on neurite outgrowth (%) [3, 11] [%] | Action on neurite outgrowth (%) [3, 12] [%] | Degeneration/defluxion of hippocampal pyramidal cell [4] | Cell survival percentage (%) ([1]; final concentration 50 ng/ml) | Cell survival percentage (%) ([1]; final concentration 200 ng/ml) | Cell survival percentage (%) ([1]; final concentration 800 ng/ml) | Cell survival percentage (%) [1, 13] [%] | optimum concentration for exhibiting cell-growth-promoting action [1] [ng/mL] | Evaluation B: Neurite-outgrowth action ([3]; 3 days) | Rate of cells exhibiting neurite outgrowth (%) [3, 14] | Rate of cells exhibiting neurite outgrowth (%) [3, 15] [%] | Rate of cells exhibiting neurite outgrowth (%) [3, 16] [%] | Rate of cells exhibiting neurite outgrowth (%) [3, 17] [%] | other results
1 | CCCCCCCN1C=CC(=CC=C(C=Cc2cc[n+](CCCCCCC)c3ccccc23)c2cc[n+](CCCCCCC)c3ccccc23)c2ccccc21.[I-].[I-] [NK-28] | 146 ± 10 | 111 ± 28 | 252 ± 65 | 470 ± 17 | 69.0 ± 28 | 38 ± 1 | 64 ± 10 | 70 ± 11 | 46 ± 20 | 1.4 |  |  |  |  |  |  |  |  |  |  | 
2 | CCN1/C(=C/C=C(/C=C/c2sc3ccccc3[n+]2CC)c2sc3ccccc3[n+]2CC)Sc2ccccc21.[I-].[I-] [NK-100] |  |  |  |  | 61.9 ± 9.4 |  |  |  |  | 0.9 | 288 ± 19 | 202 ± 4 | 82 ± 15 | 154 ± 156 | 50 | ∘ (The test sample with a neurite outgrowth rate of 30% or higher was judged to be equivalent or more (∘) compared with NK-4) | 36 ± 2% | 40 ± 8 | 52 ± 7 | 89 ± 6 | 
3 | CCCCCCCCN1C=CC(=CC=C(C=Cc2cc[n+](CCCCCCCC)c3ccccc23)c2cc[n+](CCCCCCCC)c3ccccc23)c2ccccc21.[I-].[I-] [NK-147] | 122 ± 14 | 136 ± 30 | 163 ± 60 | 404 ± 76 | 56.5 ± 9.8 | 32 ± 7 | 50 ± 5 | 70 ± 11 | 35 ± 14 | 1.5 |  |  |  |  |  |  |  |  |  |  | 
4 | CCCCCCCCCN1C(C)=CS\C1=C/C=C(\C=C\c1scc(C)[n+]1CCCCCCCCC)c1scc(C)[n+]1CCCCCCCCC.[I-].[I-] [NK-393] |  |  |  |  | 86.5 ± 1.8 |  |  |  |  | 1.1 |  |  |  |  |  |  |  |  |  |  | Action of enhancing cell growth (%) ([1]; 100 μl/well of 100 ng/ml test solution, 3 days, control = 100): 550%; improving effect on motor coordination (in words) ([2]; cerebellar ataxia hamsters, agents of Example 1 compared among pentamethine cyanine dye compounds): particularly high improving effect on motor coordination; Percentage (%) of cells with neurite outgrowth ([3]; 50 μl/well of 2 μg/ml test solution + NGF final 5 ng/ml, 3 days): 68%
5 | CC[n+]1ccccc1/C=C/c1ccc(N(C)C)cc1 [NK-557] |  |  |  |  | 39.9 ± 5.1 |  |  |  |  | 2.1 | 110 ± 6 | 241 ± 48 | 184 ± 42 | 97 ± 25 | 200 | ∘ (The test sample with a neurite outgrowth rate of 30% or higher was judged to be equivalent or more (∘) compared with NK-4) | 10> % | 20 ± 2 | 43 ± 5 | 84 ± 42 | 
